Assay results reported in the NIST ThermoML archive (doi:10.1016/j.fluid.2018.05.028).

Tests used:
[1] = xn = mol fraction of the nth substance listed; details: 101 kPa, Liquid, x1 = 1; for viscosity: Concentric cylinders viscometry; for speed of sound: Single path-length method; for mass density: Vibrating tube method
[2] = refractive index (Na D-line) (dimensionless); xn = mol fraction of the nth substance listed; details: 101 kPa, Liquid, Standard Abbe refractometry, x1 = 1
[3] = 101 kPa, Liquid; for viscosity: Concentric cylinders viscometry; for speed of sound: Single path-length method; for mass density: Vibrating tube method
[4] = refractive index (Na D-line) (dimensionless); details: 101 kPa, Liquid, Standard Abbe refractometry

CCCO [propan-1-ol] + CCCCCCCCCCCCCCCC
Details	mass density, [1] [kg/m3]	refractive index, [2]	speed of sound, [1] [m/s]	viscosity, [1] [mPa·s]
293.15 K	803.95	1.3852	1223	2.147
298.15 K	799.93	1.3831	1205.7	1.926
303.15 K	795.89	1.381	1188.6	1.716
308.15 K	791.82	1.3789	1171.6	1.532
313.15 K	787.71	1.3768	1154.7	1.379
318.15 K	783.56	1.3747	1137.9	1.234
323.15 K	779.36	1.3726	1121.1	1.112
328.15 K	775.1	1.3704	1104.3	1.004
333.15 K	770.78	1.3682	1087.5	0.9109
338.15 K	766.4	1.366	1070.6	0.8241
343.15 K	761.93	1.3635	1053.8	0.7468

CCCCO [butan-1-ol]
Details	mass density, [3] [kg/m3]	refractive index, [4]	speed of sound, [3] [m/s]	viscosity, [3] [mPa·s]
298.15 K	805.98	1.3979	1239.6	2.531
303.15 K	802.13	1.3959	1222.8	2.232
308.15 K	798.25	1.3938	1206	1.975

CCCCCCCC/C=C\CCCCCCCC(=O)OCC [ethyl (Z)-9-octadeceneoate]
Details	mass density, [3] [kg/m3]	refractive index, [4]	speed of sound, [3] [m/s]	viscosity, [3] [mPa·s]
298.15 K	865.23	1.4481	1376.2	5.674
303.15 K	861.6	1.4461	1358.4	4.999
308.15 K	857.97	1.4441	1340.8	4.435

CCCCO [butan-1-ol] + CCCCCCCCCCCCCCCC
Details	mass density, [1] [kg/m3]	refractive index, [2]	speed of sound, [1] [m/s]	viscosity, [1] [mPa·s]
293.15 K	809.8	1.3999	1256.6	2.868
298.15 K	805.98	1.3979	1239.6	2.531
303.15 K	802.13	1.3959	1222.8	2.232
308.15 K	798.25	1.3938	1206	1.975
313.15 K	794.35	1.3918	1189.4	1.758
318.15 K	790.41	1.3897	1172.8	1.563
323.15 K	786.42	1.3876	1156.2	1.399
328.15 K	782.39	1.3855	1139.7	1.256
333.15 K	778.3	1.3833	1123.2	1.131
338.15 K	774.15	1.381	1106.6	1.021
343.15 K	769.94	1.3788	1090.1	0.925

CCCO [propan-1-ol] + CCCCCCCC/C=C\CCCCCCCC(=O)OCC
Details	mass density, [1] [kg/m3]	refractive index, [2]	speed of sound, [1] [m/s]	viscosity, [1] [mPa·s]
293.15 K	803.95	1.3852	1223	2.147
298.15 K	799.93	1.3831	1205.7	1.926
303.15 K	795.89	1.381	1188.6	1.716
308.15 K	791.82	1.3789	1171.6	1.532
313.15 K	787.71	1.3768	1154.7	1.379
318.15 K	783.56	1.3747	1137.9	1.234
323.15 K	779.36	1.3726	1121.1	1.112
328.15 K	775.1	1.3704	1104.3	1.004
333.15 K	770.78	1.3682	1087.5	0.9109
338.15 K	766.4	1.366	1070.6	0.8241
343.15 K	761.93	1.3635	1053.8	0.7468

CCCCCCCCCCCCCCCC [hexadecane]
Details	mass density, [3] [kg/m3]	refractive index, [4]	speed of sound, [3] [m/s]	viscosity, [3] [mPa·s]
298.15 K	769.87	1.4318	1338.5	3.035
303.15 K	766.4	1.4296	1319.8	2.708
308.15 K	762.95	1.4275	1301.3	2.432

CCCO [propan-1-ol]
Details	mass density, [3] [kg/m3]	refractive index, [4]	speed of sound, [3] [m/s]	viscosity, [3] [mPa·s]
298.15 K	799.93	1.3831	1205.7	1.926
303.15 K	795.89	1.381	1188.6	1.716
308.15 K	791.82	1.3789	1171.6	1.532
